Assay results: the NIST ThermoML archive (doi:10.1021/je400472v)

Assay: mean ionic activity coefficient (dimensionless); mn = molality of the nth substance listed, in mol/kg
Conditions: 101 kPa, Liquid

[Cl-].[Cl-].[Sr+2] [strontium chloride] + O
Conditions | mean ionic activity coefficient
283.15 K, m1 = 0.01 | 0.732
283.15 K, m1 = 0.02 | 0.668
283.15 K, m1 = 0.05 | 0.58
283.15 K, m1 = 0.1 | 0.519
283.15 K, m1 = 0.2 | 0.47
283.15 K, m1 = 0.3 | 0.45
293.15 K, m1 = 0.01 | 0.728
293.15 K, m1 = 0.02 | 0.663
293.15 K, m1 = 0.05 | 0.575
293.15 K, m1 = 0.1 | 0.513
293.15 K, m1 = 0.2 | 0.464
293.15 K, m1 = 0.3 | 0.444
298.15 K, m1 = 0.01 | 0.726
298.15 K, m1 = 0.02 | 0.661
298.15 K, m1 = 0.05 | 0.571
298.15 K, m1 = 0.1 | 0.509
298.15 K, m1 = 0.2 | 0.459
298.15 K, m1 = 0.3 | 0.439
298.15 K, m1 = 0.4 | 0.43
298.15 K, m1 = 0.5 | 0.428
298.15 K, m1 = 0.6 | 0.43
298.15 K, m1 = 0.7 | 0.435
298.15 K, m1 = 0.8 | 0.442
298.15 K, m1 = 0.9 | 0.451
298.15 K, m1 = 1 | 0.462
298.15 K, m1 = 1.2 | 0.489
298.15 K, m1 = 1.4 | 0.522
298.15 K, m1 = 1.6 | 0.562
298.15 K, m1 = 1.8 | 0.609
298.15 K, m1 = 2 | 0.665
298.15 K, m1 = 2.5 | 0.849
298.15 K, m1 = 3 | 1.12
298.15 K, m1 = 3.5 | 1.524
298.15 K, m1 = 3.52 | 1.544
303.15 K, m1 = 0.01 | 0.724
303.15 K, m1 = 0.02 | 0.658
303.15 K, m1 = 0.05 | 0.569
303.15 K, m1 = 0.1 | 0.507
303.15 K, m1 = 0.2 | 0.457
303.15 K, m1 = 0.3 | 0.437
313.15 K, m1 = 0.01 | 0.72
313.15 K, m1 = 0.02 | 0.653
313.15 K, m1 = 0.05 | 0.563
313.15 K, m1 = 0.1 | 0.5
313.15 K, m1 = 0.2 | 0.45
313.15 K, m1 = 0.3 | 0.429
323.15 K, m1 = 0.01 | 0.715
323.15 K, m1 = 0.02 | 0.648
323.15 K, m1 = 0.05 | 0.556
323.15 K, m1 = 0.1 | 0.493
323.15 K, m1 = 0.2 | 0.442
323.15 K, m1 = 0.3 | 0.421
333.15 K, m1 = 0.01 | 0.71
333.15 K, m1 = 0.02 | 0.642
333.15 K, m1 = 0.05 | 0.549
333.15 K, m1 = 0.1 | 0.485
333.15 K, m1 = 0.2 | 0.434
333.15 K, m1 = 0.3 | 0.413
